Results reported in patent publication US7875647B2, “Heteroaryl-pyrazole derivatives as cannabinoid CB1 receptor antagonists” (Green Cross Corporation, priority 2006, dated 2011).

molecular target: T1, Cannabinoid-1 receptor (CB1R) (Rattus norvegicus, UniProt P20272); assay: Cannabinoid-1 receptor (CB1R) binding affinity assay ([3H]CP-55940, rat CB-1 receptor binding protocol); conditions: IC50(nM), brain tissue of SD rats, [3H]CP-55940, 30° C. 60 min
T1 construct: The tissue obtained from the brain of SD rats was homogenized; from tissue; host or cells: brain of SD rats (membrane pellet of the homogenate)
T1 sequence (P20272 whole entry): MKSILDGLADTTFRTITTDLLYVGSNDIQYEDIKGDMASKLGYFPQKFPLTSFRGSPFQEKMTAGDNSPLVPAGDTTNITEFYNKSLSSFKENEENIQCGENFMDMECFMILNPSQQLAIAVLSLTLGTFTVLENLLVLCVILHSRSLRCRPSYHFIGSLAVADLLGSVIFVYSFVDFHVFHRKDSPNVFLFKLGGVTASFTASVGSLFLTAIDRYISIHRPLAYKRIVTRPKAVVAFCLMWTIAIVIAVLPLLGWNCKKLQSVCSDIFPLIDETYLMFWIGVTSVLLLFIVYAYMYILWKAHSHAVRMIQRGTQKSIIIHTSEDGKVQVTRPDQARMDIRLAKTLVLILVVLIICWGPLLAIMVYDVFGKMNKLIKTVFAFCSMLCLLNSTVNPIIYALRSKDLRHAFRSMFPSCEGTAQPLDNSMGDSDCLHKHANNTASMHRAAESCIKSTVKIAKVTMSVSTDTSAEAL
Protocol: The tissue obtained from the brain of SD rats was homogenized with a Dounce homogenate system in TME (50 mM Tris, 3 mM MgCl2 and 1 mM EDTA, pH 7.4) at 4° C., and the homogenate was centrifuged at 48,000 g for 30 min. at 4° C. The pellet was resuspended in 5 ml of TME and the suspension was divided into aliquots and stored at −70° C. until its use in the following assay.
The tissue concentrations were determined by Bradford protein analysis, and 148 μl of brain tissue of the required concentration was added to the plate. The plate was covered and placed in a 30° C. incubator for 60 min, and then transformed on GF/B filtermat pretreated in polyethylenimine (PEI) using a cell harvester. Each filter was washed five times and dried at 60° C. for 1 hr. Then, the degree of radioactivity retained by the filter was measured using Wallac Microbeta™ (PerkinElmer Life Sciences, Inc., Massachusetts, U.S.A.) and the activity of the compound for inhibiting CB1 receptor was determined therefrom.

| Compound | IC50 [nM] |
| --- | --- |
| CCc1c(-c2nnc(C3(c4ccccc4)CC3)o2)nn(-c2ccc(Cl)cc2Cl)c1-c1ccc(Br)cc1 [Example 177, 2-(5-(4-bromophenyl)-1-(2,4-dichlorophenyl)-4-ethyl-1H-pyrazol-3-yl)-5-(1-phenylcyclopropyl)-1,3,4-oxadiazole] | 3.01 |

same assay, conditions: brain tissue of SD rats, [3H]CP-55940, 30° C. 60 min; read-out: IC50

| Compound | IC50 [nM] |
| --- | --- |
| CC(C)(C)c1nnc(-c2nn(-c3ccc(Cl)cc3Cl)c(-c3ccc(Cl)cc3)c2Cn2cccn2)o1 [Example 298, 2-(4-((1H-pyrazol-1-yl)methyl)-5-(4-chlorophenyl)-1-(2,4-dichlorophenyl)-1H-pyrazol-3-yl)-5-tert-butyl-1,3,4-oxadiazole] | 20.5 |
| COc1ccc(-c2c(C)c(-c3nnc(C4(c5ccc(OC)cc5)CC4)o3)nn2-c2ccc(Cl)cc2Cl)cc1 [Example 172, 2-(1-(2,4-dichlorophenyl)-5-(4-methoxyphenyl)-4-methyl-1H-pyrazol-3-yl)-5-(1-(4-methoxyphenyl)cyclopropyl)-1,3,4-oxadiazole] | 17.9 |
| Cc1c(-c2ncc(C3CCCC3)o2)nn(-c2ccc(Cl)cc2Cl)c1-c1ccc(Cl)cc1 [Example 643, 2-(5-(4-chlorophenyl)-1-(2,4-dichlorophenyl)-4-methyl-1H-pyrazol-3-yl)-5-cyclopentyloxazole] | 65.5 |
| Cc1c(-c2nnc(C(C)c3ccccc3)s2)nn(-c2ccc(Cl)cc2Cl)c1-c1ccc(Cl)cc1 (stereo not shown) [Example 381, 2-(5-(4-chlorophenyl)-1-(2,4-dichlorophenyl)-4-methyl-1H-pyrazol-3-yl)-5-(1-phenylethyl)-1,3,4-thiadiazole] | 11.2 |
| Cc1c(-c2nnc(C(C)Cc3ccccc3)s2)nn(-c2ccc(Cl)cc2Cl)c1-c1ccc(Cl)cc1 (stereo not shown) [Example 385, 2-(5-(4-chlorophenyl)-1-(2,4-dichlorophenyl)-4-methyl-1H-pyrazol-3-yl)-5-(1-phenylpropan-2-yl)-1,3,4-thiadiazole] | 33.6 |
| 5-(5-(4-Chlorophenyl)-1-(2,4-dichlorophenyl)-4-methyl-1H-pyrazol-3-yl)-1-octyl-1H-tetrazole [Example 604] | 47.3 |
| CC(C)(C)c1nnc(-c2nn(-c3ccc(Cl)cc3Cl)c(-c3ccc(Cl)cc3)c2Cl)s1 [Example 540, 2-tert-butyl-5-(4-chloro-5-(4-chlorophenyl)-1-(2,4-dichlorophenyl)-1H-pyrazol-3-yl)-1,3,4-thiadiazole] | 98.1 |
| CCC1(c2nnc(-c3nn(-c4ccc(Cl)cc4Cl)c(-c4ccc(Cl)cc4)c3C)s2)CC1 [Example 488, 2-(5-(4-chlorophenyl)-1-(2,4-dichlorophenyl)-4-methyl-1H-pyrazol-3-yl)-5-(1-ethylcyclopropyl)-1,3,4-thiadiazole] | 106 |
| CCCOC(C)(C)c1nnc(-c2nn(-c3ccc(Cl)cc3Cl)c(-c3ccc(Cl)cc3)c2C)s1 [Example 449, 2-(5-(4-chlorophenyl)-1-(2,4-dichlorophenyl)-4-methyl-1H-pyrazol-3-yl)-5-(2-propoxypropan-2-yl)-1,3,4-thiadiazole] | 61.3 |
| Clc1ccc(-c2c(Br)c(-c3nnc(C4CCC4)o3)nn2-c2ccc(Cl)cc2Cl)cc1 [Example 340, 2-(4-bromo-5-(4-chlorophenyl)-1-(2,4-dichlorophenyl)-1H-pyrazol-3-yl)-5-cyclobutyl-1,3,4-oxadiazole] | 35.5 |
| Cc1c(-c2nnc(C3CCC3)s2)nn(-c2ccccc2Cl)c1-c1ccc(Cl)cc1 [Example 409, 2-(1-(2-chlorophenyl)-5-(4-chlorophenyl)-4-methyl-1H-pyrazol-3-yl)-5-cyclobutyl-1,3,4-thiadiazole] | 58.1 |
| Cc1c(-c2nnc(C(C)C3CCCCC3)o2)nn(-c2ccc(Cl)cc2Cl)c1-c1ccc(Cl)cc1 (stereo not shown) [Example 62, 2-(5-(4-chlorophenyl)-1-(2,4-dichlorophenyl)-4-methyl-1H-pyrazol-3-yl)-5-(1-cyclohexylethyl)-1,3,4-oxadiazole] | 51.7 |
| CCc1c(-c2nnc(C(CC)CC)s2)nn(-c2ccc(Cl)cc2Cl)c1-c1ccc(Br)cc1 [Example 454, 2-(5-(4-bromophenyl)-1-(2,4-dichlorophenyl)-4-ethyl-1H-pyrazol-3-yl)-5-(pentan-3-yl)-1,3,4-thiadiazole] | 23.1 |
| Cc1c(-c2nnc(C(C)C3CCCC3)s2)nn(-c2ccc(Cl)cc2Cl)c1-c1ccc(Cl)cc1 (stereo not shown) [Example 391, 2-(5-(4-chlorophenyl)-1-(2,4-dichlorophenyl)-4-methyl-1H-pyrazol-3-yl)-5-(1-cyclopentylethyl)-1,3,4-thiadiazole] | 14.3 |
| CCC(C)c1nnc(-c2nn(-c3ccc(Cl)cc3Cl)c(-c3ccc(Cl)cc3)c2Br)s1 (stereo not shown) [Example 542, 2-(4-bromo-5-(4-chlorophenyl)-1-(2,4-dichlorophenyl)-1H-pyrazol-3-yl)-5-sec-butyl-1,3,4-thiadiazole] | 51.9 |
| CC(C)(C)c1nnc(-c2nn(-c3ccc(Cl)cc3Cl)c(-c3ccc(Cl)cc3)c2Cn2ccnc2)o1 [Example 297, 2-(4-((1H-imidazol-1-yl)methyl)-5-(4-chlorophenyl)-1-(2,4-dichlorophenyl)-1H-pyrazol-3-yl)-5-tert-butyl-1,3,4-oxadiazole] | 18.7 |
| CC(F)c1c(-c2nnc(C(C)(C)C)o2)nn(-c2ccc(Cl)cc2Cl)c1-c1ccc(Br)cc1 (stereo not shown) [Example 211, 2-(5-(4-bromophenyl)-1-(2,4-dichlorophenyl)-4-(1-fluoroethyl)-1H-pyrazol-3-yl)-5-tert-butyl-1,3,4-oxadiazole] | 12.1 |
| CCc1c(-c2nnc(C(C)(C)CC)s2)nn(-c2ccc(Cl)cc2Cl)c1-c1ccc(Br)cc1 [Example 451, 2-(5-(4-bromophenyl)-1-(2,4-dichlorophenyl)-4-ethyl-1H-pyrazol-3-yl)-5-tert-pentyl-1,3,4-thiadiazole] | 19.7 |
| CC(C)(C)c1nnc(-c2nn(-c3ccc(Cl)cc3Cl)c(-c3ccc(Cl)cc3)c2C=O)o1 [Example 202, 3-(5-tert-butyl-1,3,4-oxadiazol-2-yl)-5-(4-chlorophenyl)-1-(2,4-dichlorophenyl)-1H-pyrazole-4-carbaldehyde] | 36.2 |
| CCc1c(-c2nnc(C3(C(F)(F)F)CC3)s2)nn(-c2ccc(Cl)cc2Cl)c1-c1ccc(Cl)cc1 [Example 500, 2-(5-(4-chlorophenyl)-1-(2,4-dichlorophenyl)-4-ethyl-1H-pyrazol-3-yl)-5-(1-(trifluoromethyl)cyclopropyl)-1,3,4-thiadiazole] | 23.3 |

Results, then the compound that gave them:

| IC50 [nM] | Compound |
| --- | --- |
| 453 | Cc1c(-c2nnc(C3(c4ccc(Cl)cc4)CC3)s2)nn(-c2ccc(Cl)cc2)c1-c1ccc(Cl)cc1 [Example 447, 2-(1,5-bis(4-chlorophenyl)-4-methyl-1H-pyrazol-3-yl)-5-(1-(4-chlorophenyl)cyclopropyl)-1,3,4-thiadiazole] |
| 57.3 | CC(=O)Oc1c(-c2nnc(C(C)(C)C)o2)nn(-c2ccc(Cl)cc2Cl)c1-c1ccc(Cl)cc1 [Example 216, 3-(5-tert-butyl-1,3,4-oxadiazol-2-yl)-5-(4-chlorophenyl)-1-(2,4-dichlorophenyl)-1H-pyrazol-4-yl acetate] |
| 53.8 | Cc1c(-c2nnnn2Cc2ccco2)nn(-c2ccc(Cl)cc2Cl)c1-c1ccc(Cl)cc1 [Example 593, 5-(5-(4-Chlorophenyl)-1-(2,4-dichlorophenyl)-4-methyl-1H-pyrazol-3-yl)-1-(furan-2-ylmethyl)-1H-tetrazole] |
| 13.4 | CCCC(C)c1nnc(-c2nn(-c3ccc(Cl)cc3Cl)c(-c3ccc(Cl)cc3)c2C)s1 (stereo not shown) [Example 368, 2-(5-(4-Chlorophenyl)-1-(2,4-dichlorophenyl)-4-methyl-1H-pyrazol-3-yl)-5-(pentan-2-yl)-1,3,4-thiadiazole] |
| 11.1 | CCCc1c(-c2nnc(C3(c4ccc(Cl)cc4)CCC3)o2)nn(-c2ccc(Cl)cc2Cl)c1-c1ccc(Cl)cc1 [Example 187, 2-(5-(4-chlorophenyl)-1-(2,4-dichlorophenyl)-4-propyl-1H-pyrazol-3-yl)-5-(1-(4-chlorophenyl)cyclobutyl)-1,3,4-oxadiazole] |
| 10.1 | CC(C)(C)c1nnc(-c2nn(-c3ccc(Cl)cc3Cl)c(-c3ccc(Br)cc3)c2C=O)s1 [Example 527, 5-(4-bromophenyl)-3-(5-tert-butyl-1,3,4-thiadiazol-2-yl)-1-(2,4-dichlorophenyl)-1H-pyrazole-4-carbaldehyde] |
| 8.67 | CCC(C)(C)c1nnc(-c2nn(-c3ccccc3Cl)c(-c3ccc(Br)cc3)c2C)s1 [Example 429, 2-(5-(4-bromophenyl)-1-(2-chlorophenyl)-4-methyl-1H-pyrazol-3-yl)-5-tert-pentyl-1,3,4-thiadiazole] |
| 7.4 | Cc1c(-c2nnc(C3(c4ccc(Cl)cc4)CC3)o2)nn(-c2ccccc2Cl)c1-c1ccc(Cl)cc1 [Example 112, 2-(1-(2-chlorophenyl)-5-(4-chlorophenyl)-4-methyl-1H-pyrazol-3-yl)-5-(1-(4-chlorophenyl)cyclopropyl)-1,3,4-oxadiazole] |
| 5.62 | CCc1c(-c2nnc(C3(c4ccc(OC)cc4)CC3)o2)nn(-c2ccc(Cl)cc2Cl)c1-c1ccc(Cl)cc1 [Example 152, 2-(5-(4-chlorophenyl)-1-(2,4-dichlorophenyl)-4-ethyl-1H-pyrazol-3-yl)-5-(1-(4-methoxyphenyl)cyclopropyl)-1,3,4-oxadiazole] |
| 3.94 | CCc1c(-c2nnc(C3(c4ccc(Cl)cc4Cl)CC3)s2)nn(-c2ccc(Cl)cc2Cl)c1-c1ccc(Cl)cc1 [Example 482, 2-(5-(4-chlorophenyl)-1-(2,4-dichlorophenyl)-4-ethyl-1H-pyrazol-3-yl)-5-(1-(2,4-dichlorophenyl)cyclopropyl)-1,3,4-thiadiazole] |
